In US11986493B2 (University of Pittsburgh—Of the Commonwealth System of …, priority 2013, dated 2024):
“Also recorded” adds a separate entry of the source.

Test system: subjects with pulmonary hypertension (WHO group I PAH, WHO group III PH)
Experiment: Right heart catheterization: right heart/pulmonary artery hemodynamics, thermodilution cardiac output, PVR and SVR after inhaled NO and nebulized nitrite
Type: in vivo, human
Description: A total of 6 subjects with a confirmed diagnosis of pulmonary hypertension and meeting all inclusion/exclusion criteria were enrolled in the study which entailed a single right heart catheterization. The study population consisted of subjects with WHO group I PAH (n=3) and subjects with WHO group III PH (n=3) which received the dose escalation paradigm:
During the study right heart/pulmonary artery hemodynamics were measured as well as noninvasive systemic blood pressure monitoring and simultaneous RV echocardiography. Subjects were tested for the changes in pulmonary vascular resistance (PVR) measured by right heart catheterization and using thermodilution cardiac output measurement at time zero, at times 15, 30 and 45 minutes after completion of each nebulization dose.
Following right heart catheterization, the patient was stabilized for 20 minutes. Baseline blood collections and hemodynamic measurements were performed, followed by treatment with 40 ppm inhaled NO gas for […] with repeat hemodynamic measurements performed.
After stopping inhaled NO gas, a single dose of sildenafil was given if patients were on background sildenafil therapy at previously prescribed doses. 45-minutes after sildenafil dose baseline hemodynamics were performed.
Subjects were monitored carefully during and after the study treatment.
The study was conducted at the 3rd FL Catheterization Laboratory at Presbyterian Hospital of the University of Pittsburgh Medical Center (UPMC). Baseline vasoreactivity was recorded after Inhaled NO at 40 ppm for […]. […] Subjects were instructed to breathe as calmly, and deeply as possible until no more mist was formed in the nebulizer chamber. Subjects were also instructed to hold their breath for approximately 10 seconds after inhalation to allow the study drug to reach deep into the lungs.

[1] = Patient 5, nitrite 45 mg inhaled, 60 min
[2] = Patient 5, nitrite 90 mg inhaled, 15 min
[3] = Patient 5, nitrite 90 mg inhaled, 30 min
[4] = Patient 5, nitrite 90 mg inhaled, 45 min
[5] = Patient 5, nitrite 90 mg inhaled, 60 min

O=NO [nitrite, sodium nitrite]
PCWP [1]: 7 | PVR [1]: 6.50 | PVR/SVR [1]: 0.49 | RA [1]: 3 | RVD [1]: 1 | RVS [1]: 76 | SVR [1]: 13.16 | TPR [1]: 8.07 | mPAP [1]: 36.01 | CI [2]: 2.77 | CO [2]: 4.91 | PAD [2]: 16 | PAS [2]: 76 | PCWP [2]: 2 | PVR [2]: 6.93 | PVR/SVR [2]: 0.50 | RA [2]: 1 | SVR [2]: 13.778 | TPR [2]: 7.33 | mPAP [2]: 36.01 | CI [3]: 2.81 | CO [3]: 4.97 | PAD [3]: 16 | PAS [3]: 69 | PCWP [3]: 3 | PVR [3]: 6.17 | PVR/SVR [3]: 0.47 | RA [3]: 1 | SVR [3]: 13.21 | TPR [3]: 6.78 | mPAP [3]: 33.67 | CI [4]: 2.86 | CO [4]: 5.07 | PAD [4]: 13 | PAS [4]: 70 | PCWP [4]: 3 | PVR [4]: 5.72 | PVR/SVR [4]: 0.47 | RA [4]: 1 | SVR [4]: 12.16 | TPR [4]: 6.31 | mPAP [4]: 32.01 | CI [5]: 3.24 | CO [5]: 5.73 | PAD [5]: 14 | PAS [5]: 74 | PCWP [5]: 3 | PVR [5]: 5.41 | PVR/SVR [5]: 0.44 | RA [5]: 1 | SVR [5]: 12.33 | TPR [5]: 5.93 | mPAP [5]: 34.01 | CI (Patient 6, nitrite 45, 15 min): 2.9849 | CO (Patient 6, nitrite 45, 15 min): 5.94 | PAD (Patient 6, nitrite 45, 15 min): 22 | PAS (Patient 6, nitrite 45, 15 min): 51 | PCWP (Patient 6, nitrite 45, 15 min): 12 | PVR (Patient 6, nitrite 45, 15 min): 3.3116 | PVR/SVR (Patient 6, nitrite 45, 15 min): 0.2878 | RA (Patient 6, nitrite 45, 15 min): 7 | SVR (Patient 6, nitrite 45, 15 min): 11.505 | TPR (Patient 6, nitrite 45, 15 min): 5.3318 | mPAP (Patient 6, nitrite 45, 15 min): 31.671 | CI (Patient 6, nitrite 45, 30 min): 2.8769 | CO (Patient 6, nitrite 45, 30 min): 47.25 | PAD (Patient 6, nitrite 45, 30 min): 20 | PAS (Patient 6, nitrite 45, 30 min): 48 | PCWP (Patient 6, nitrite 45, 30 min): 10 | PVR (Patient 6, nitrite 45, 30 min): 3.3777 | PVR/SVR (Patient 6, nitrite 45, 30 min): 0.2427 | RA (Patient 6, nitrite 45, 30 min): 6 | SVR (Patient 6, nitrite 45, 30 min): 13.917 | TPR (Patient 6, nitrite 45, 30 min): 5.1244 | mPAP (Patient 6, nitrite 45, 30 min): 29.337 | CI (Patient 6, nitrite 45, 45 min): 3.0704 | CO (Patient 6, nitrite 45, 45 min): 6.11 | PAD (Patient 6, nitrite 45, 45 min): 23 | PAS (Patient 6, nitrite 45, 45 min): 52 | PCWP (Patient 6, nitrite 45, 45 min): 9 | PVR (Patient 6, nitrite 45, 45 min): 3.8741 | PVR/SVR (Patient 6, nitrite 45, 45 min): 0.2958 | RA (Patient 6, nitrite 45, 45 min): 6 | SVR (Patient 6, nitrite 45, 45 min): 13.095 | TPR (Patient 6, nitrite 45, 45 min): 5.3471 | mPAP (Patient 6, nitrite 45, 45 min): 32.671 | CI (Patient 6, nitrite 45, 60 min): 2.9196 | CO (Patient 6, nitrite 45, 60 min): 5.81 | PAD (Patient 6, nitrite 45, 60 min): 28 | PAS (Patient 6, nitrite 45, 60 min): 50 | PCWP (Patient 6, nitrite 45, 60 min): 8 | PVR (Patient 6, nitrite 45, 60 min): 4.7053 | PVR/SVR (Patient 6, nitrite 45, 60 min): 0.3417 | RA (Patient 6, nitrite 45, 60 min): 6 | SVR (Patient 6, nitrite 45, 60 min): 13.771 | TPR (Patient 6, nitrite 45, 60 min): 6.0822 | mPAP (Patient 6, nitrite 45, 60 min): 35.338 | CI (Patient 6, nitrite 90, 15 min): 3.3568 | CO (Patient 6, nitrite 90, 15 min): 6.68 | PAD (Patient 6, nitrite 90, 15 min): 24 | PAS (Patient 6, nitrite 90, 15 min): 52 | PCWP (Patient 6, nitrite 90, 15 min): 9 | PVR (Patient 6, nitrite 90, 15 min): 3.6434 | PVR/SVR (Patient 6, nitrite 90, 15 min): 0.3444 | RA (Patient 6, nitrite 90, 15 min): 6 | SVR (Patient 6, nitrite 90, 15 min): 10.58 | TPR (Patient 6, nitrite 90, 15 min): 4.9907 | mPAP (Patient 6, nitrite 90, 15 min): 33.338 | CI (Patient 6, nitrite 90, 30 min): 3.6683 | CO (Patient 6, nitrite 90, 30 min): 7.3 | PAD (Patient 6, nitrite 90, 30 min): 20 | PAS (Patient 6, nitrite 90, 30 min): 48 | PCWP (Patient 6, nitrite 90, 30 min): 6 | PVR (Patient 6, nitrite 90, 30 min): 3.1969 | PVR/SVR (Patient 6, nitrite 90, 30 min): 0.3125 | RA (Patient 6, nitrite 90, 30 min): 6 | SVR (Patient 6, nitrite 90, 30 min): 10.23 | TPR (Patient 6, nitrite 90, 30 min): 4.0188 | mPAP (Patient 6, nitrite 90, 30 min): 29.337 | CI (Patient 6, nitrite 90, 45 min): 3.7085 | CO (Patient 6, nitrite 90, 45 min): 7.38 | PAD (Patient 6, nitrite 90, 45 min): 24 | PAS (Patient 6, nitrite 90, 45 min): 52 | PCWP (Patient 6, nitrite 90, 45 min): 4 | PVR (Patient 6, nitrite 90, 45 min): 3.9753 | PVR/SVR (Patient 6, nitrite 90, 45 min): 0.4074 | RA (Patient 6, nitrite 90, 45 min): 6 | SVR (Patient 6, nitrite 90, 45 min): 9.7574 | TPR (Patient 6, nitrite 90, 45 min): 4.5173 | mPAP (Patient 6, nitrite 90, 45 min): 33.338 | CI (Patient 6, nitrite 90, 60 min): 4.3417 | CO (Patient 6, nitrite 90, 60 min): 8.64 | PAD (Patient 6, nitrite 90, 60 min): 28 | PAS (Patient 6, nitrite 90, 60 min): 55 | PCWP (Patient 6, nitrite 90, 60 min): 4 | PVR (Patient 6, nitrite 90, 60 min): 3.82 | PVR/SVR (Patient 6, nitrite 90, 60 min): 0.4877 | RA (Patient 6, nitrite 90, 60 min): 8 | RVD (Patient 6, nitrite 90, 60 min): 8 | RVS (Patient 6, nitrite 90, 60 min): 47 | SVR (Patient 6, nitrite 90, 60 min): 7.8329 | TPR (Patient 6, nitrite 90, 60 min): 4.2829 | mPAP (Patient 6, nitrite 90, 60 min): 37.005 | RA pressure (right atrial pressure) (patients with PAH (WHO Group 1 and Group 3; n=6), inhaled doses of 45 mg and 90 mg): dose-dependent reduction | PCWP (pulmonary capillary wedge pressure) (patients with PAH (WHO Group 1 and Group 3; n=6), inhaled doses of 45 mg and 90 mg, listed as inhaled nitrite): lowers; also recorded: dose-dependent reduction | response of patients non-responsive to inhaled NO (some patients of the study): responsive
